# Results taken from patent publication US20160250213A1, “FORMULATIONS OF AZAINDOLE COMPOUNDS” (priority 2013, published 2016).
# “And” between values parts separate entries of the source, which are not always exact repeats. Equal entries are not always repeated. Where two headings read alike, the source gives them in different places. Marks after values point to notes of the source that are not given here.
# Tests used:
# [1] = system: A/Swine/Iowa/15/30 (H1N1); test: microbe, parasite or virus in culture; format: cell-based; conditions: Influenza A virus, H1N1, MDCK, in Sus scrofa, read-out: Cell Protection Assay EC50 ± SD
# [2] = single doses up to 1600 mg and multiple doses up to 800 mg daily for 10 days
# [3] = system: A/South Dakota/6/2007 (H1N1); test: microbe, parasite or virus in culture; format: cell-based; conditions: Influenza A virus, MDCK, read-out: Cell Protection Assay EC50 ± SD
# [4] = system: A/FM/1/47 (H1N1); test: microbe, parasite or virus in culture; format: cell-based; conditions: Influenza A virus, MDCK, read-out: Cell Protection Assay EC50 ± SD
# [5] = system: A/Equine/2/Miami/63 (H3N8); test: microbe, parasite or virus in culture; format: cell-based; conditions: Influenza A virus, H3N8, MDCK, read-out: Cell Protection Assay EC50 ± SD
# [6] = system: A/Virginia/ATCC3/2009 (H1N1); test: microbe, parasite or virus in culture; format: cell-based; conditions: Influenza A virus, MDCK, read-out: Cell Protection Assay EC50 ± SD
# [7] = system: B/Russia/69; test: microbe, parasite or virus in culture; format: cell-based; conditions: Influenza B virus, MDCK, read-out: Cell Protection Assay EC50 ± SD
# [8] = system: A/Chelyabinsk/1/2006 (H1N1); test: microbe, parasite or virus in culture; format: cell-based; conditions: Influenza A virus, MDCK, read-out: Cell Protection Assay EC50 ± SD
# [9] = system: A/Missouri/3/2006 (H1N1); test: microbe, parasite or virus in culture; format: cell-based; conditions: Influenza A virus, MDCK, read-out: Cell Protection Assay EC50 ± SD
# [10] = system: influenza A; set-up: species or system mice; conditions: mouse, in vivo
# [11] = system: A/Denver/1/57 (H1N1); test: microbe, parasite or virus in culture; format: cell-based; conditions: Influenza A virus, MDCK, read-out: Cell Protection Assay EC50 ± SD
# [12] = system: Influenza A/Victoria/3/75 (H3N2) virus; format: in vivo, BALB/c mice
# [13] = system: influenza virus; set-up: species or system mice; conditions: mouse, in vivo
# [14] = system: A/Virginia/ATCC2/2009 (H1N1); test: microbe, parasite or virus in culture; format: cell-based; conditions: Influenza A virus, MDCK, read-out: Cell Protection Assay EC50 ± SD
# [15] = system: B/Lee/40; test: microbe, parasite or virus in culture; format: cell-based; conditions: Influenza B virus, MDCK, read-out: Cell Protection Assay EC50 ± SD
# [16] = system: influenza A virus; format: in vivo, mice; conditions: mouse, in vivo
# [17] = system: A/New Jersey/8/76 (H1N1); test: microbe, parasite or virus in culture; format: cell-based; conditions: Influenza A virus, H1N1, MDCK, read-out: Cell Protection Assay EC50 ± SD
# [18] = system: influenza A/Wisconsin/67/2005 (H3N2) challenge strain virus; format: in vivo, humans (healthy volunteers)
# [19] = system: A/Victoria/3/75 (H3N2); test: microbe, parasite or virus in culture; format: cell-based; conditions: Influenza A virus, MDCK, read-out: Cell Protection Assay EC50 ± SD
# [20] = 1 mg/kg p.o. twice a day for 10 days starting 2 hours prior to virus exposure
# [21] = 3 mg/kg p.o. twice a day for 10 days starting 2 hours prior to virus exposure
# [22] = 10 mg/kg p.o. twice a day for 10 days starting 2 hours prior to virus exposure
# [23] = 900 mg Day 1, 600 mg Days 2-5, […]
# [24] = 1200 mg Day 1, 600 mg Days 2-5, […]
# [25] = pooled Compound (1) dose groups, […]
# [26] = 900 mg Day 1, 600 mg qd Days 2-5, N = 19
# [27] = 1200 mg Day 1, 600 mg qd Days 2-5, N = 18
# [28] = pooled Compound (1) groups, N = 72
structure (smiles),measurement,setting,value
O=C(O)[C@H]1C2CCC(CC2)C1Nc1nc(-c2c[nH]c3ncc(F)cc23)ncc1F (stereo partly drawn) [Compound (1)],EC50,[1],0.65 ± 0.082 nM
same,"liver function abnormalities, serum phosphate decreases",[2],Neither liver function abnormalities nor serum phosphate decreases were observed
same,EC50,[3],0.31 ± 0.25 nM
same,EC50,[4],0.57 ± 0.036 nM
same,EC50,[5],0.5 ± 0.065 nM
same,EC50,[6],1.9 ± 3.2 nM
same,EC50,[7],> 10 nM
same,EC50,[8],0.7 ± 0.49 nM
same,EC50,[9],0.21 ± 0.06 nM
same,Log10 Reduction vs. Vehicle,[10],−1.08 Log10
same,Log10 Reduction vs. Vehicle,[10]; 3 mg/kg,−1.04 Log10
same,Lung Viral Titer,[10]; 3 mg/kg,5.24 *** Log10 TCID50
same,Lung Viral Titer,[10]; 10 mg/kg,5.20*** Log10 TCID50
same,Lung Viral Titer,[10]; 30 mg/kg,3.95 Log10 TCID50 and 4.53*** Log10 TCID50
same,EC50,[11],0.42 ± 0.19 nM
same,MDD ± SD (mean day of death of mice that died on or before day 21),[12]; [20],9.8 ± 1.9
same,"Mean Lung Parameters (Day 6): Score (hemorrhage, 0 to 4)",[12]; [20],3.2 ± 0.3^e
same,Mean Lung Parameters (Day 6): Virus Titer,[12]; [20],7.3 ± 0.3 Log10 CCID50/g
same,Mean Lung Parameters (Day 6): Weight,[12]; [20],274 ± 49 mg
same,Survivors/Total,[12]; [20],4/10
same,"Mean Lung Parameters (Day 6): Score (hemorrhage, 0 to 4)",[12]; [21],3.3 ± 0.6^e
same,Mean Lung Parameters (Day 6): Virus Titer,[12]; [21],7.2 ± 0.2 Log10 CCID50/g
same,Mean Lung Parameters (Day 6): Weight,[12]; [21],260 ± 25 mg
same,"Mean Lung Parameters (Day 6): Score (hemorrhage, 0 to 4)",[12]; [22],0.1 ± 0.2^d
same,Mean Lung Parameters (Day 6): Virus Titer,[12]; [22],6.1 ± 0.5 Log10 CCID50/g
same,Mean Lung Parameters (Day 6): Weight,[12]; [22],164 ± 11 mg
same,half maximal reduction in lung titers,[13],2-3 log
same,EC50,[14],1.9 ± 3 nM
same,EC50,[15],> 10 nM
same,survival,[16],2/8
same,EC50,[17],0.2 ± 0.096 nM
same,"Serology, Sero-conversion (%)",[18]; [23],(68%)
same,"Serology, Sero-conversion, n/N",[18]; [23],13/19
same,"Serology, Sero-conversion (%)",[18]; [24],(67%)
same,"Serology, Sero-conversion, n/N",[18]; [24],12/18
same,"Serology, Sero-conversion, n/N",[18]; in vivo,11/16 and 9/19
same,"Serology, Sero-conversion (%)",[18]; [25],(63%)
same,"Serology, Sero-conversion, n/N",[18]; [25],45/72
same,tolerability,"100 mg to 1200/600 mg QD, five daily doses",well tolerated
same,Adverse event: Alanine aminotransferase increased,"100 mg, N = 16",3 (18.8) n(%)
same,Adverse event: Aspartate aminotransferase increased,"100 mg, N = 16",1 (6.3) n(%)
same,Adverse event: Blood phosphorus decreased,"100 mg, N = 16",3 (18.8) n(%)
same,Adverse event: Dermatitis contact,"100 mg, N = 16",3 (18.8) n(%)
same,Adverse event: Headache,"100 mg, N = 16",1 (6.3) n(%)
same,Adverse event: Influenza-like illness,"100 mg, N = 16",8 (50.0) n(%)
same,Adverse event: Malaise,"100 mg, N = 16",2 (12.5) n(%)
same,Adverse event: Nasal congestion,"100 mg, N = 16",0 n(%)
same,Adverse event: Nausea,"100 mg, N = 16",0 n(%)
same,Adverse event: Oropharylngeal pain,"100 mg, N = 16",2 (12.5) n(%)
same,Adverse event: Rhinorrhea,"100 mg, N = 16",0 n(%)
same,Adverse event: Spirometry abnormal,"100 mg, N = 16",2 (12.5) n(%)
same,Adverse event: Tension Headache,"100 mg, N = 16",0 n(%)
same,Adverse event: Alanine aminotransferase increased,"400 mg, N = 19",1 (5.3) n(%)
same,Adverse event: Aspartate aminotransferase increased,"400 mg, N = 19",1 (5.3) n(%)
same,Adverse event: Blood phosphorus decreased,"400 mg, N = 19",0 n(%)
same,Adverse event: Dermatitis contact,"400 mg, N = 19",0 n(%)
same,Adverse event: Headache,"400 mg, N = 19",4 (21.1) n(%)
same,Adverse event: Influenza-like illness,"400 mg, N = 19",10 (52.6) n(%)
same,Adverse event: Malaise,"400 mg, N = 19",0 n(%)
same,Adverse event: Nasal congestion,"400 mg, N = 19",0 n(%)
same,Adverse event: Nausea,"400 mg, N = 19",2 (10.5) n(%)
same,Adverse event: Oropharylngeal pain,"400 mg, N = 19",0 n(%)
same,Adverse event: Rhinorrhea,"400 mg, N = 19",2 (10.5) n(%)
same,Adverse event: Spirometry abnormal,"400 mg, N = 19",4 (21.1) n(%)
same,Adverse event: Tension Headache,"400 mg, N = 19",2 (10.5) n(%)
same,Adverse event: Alanine aminotransferase increased,[26],0 n(%)
same,Adverse event: Aspartate aminotransferase increased,[26],0 n(%)
same,Adverse event: Blood phosphorus decreased,[26],6 (31.6) n(%)
same,Adverse event: Dermatitis contact,[26],0 n(%)
same,Adverse event: Headache,[26],0 n(%)
same,Adverse event: Influenza-like illness,[26],9 (47.4) n(%)
same,Adverse event: Malaise,[26],0 n(%)
same,Adverse event: Nasal congestion,[26],0 n(%)
same,Adverse event: Nausea,[26],1 (5.3) n(%)
same,Adverse event: Oropharylngeal pain,[26],1 (5.3) n(%)
same,Adverse event: Rhinorrhea,[26],0 n(%)
same,Adverse event: Spirometry abnormal,[26],0 n(%)
same,Adverse event: Tension Headache,[26],1 (5.3) n(%)
same,Adverse event: Alanine aminotransferase increased,[27],6 (33.3) n(%)
same,Adverse event: Aspartate aminotransferase increased,[27],2 (11.1) n(%)
same,Adverse event: Blood phosphorus decreased,[27],4 (22.2) n(%)
same,Adverse event: Dermatitis contact,[27],0 n(%)
same,Adverse event: Headache,[27],2 (11.1) n(%)
same,Adverse event: Influenza-like illness,[27],7 (38.9) n(%)
same,Adverse event: Malaise,[27],0 n(%)
same,Adverse event: Nasal congestion,[27],1 (5.6) n(%)
same,Adverse event: Nausea,[27],0 n(%)
same,Adverse event: Oropharylngeal pain,[27],0 n(%)
same,Adverse event: Rhinorrhea,[27],1 (5.6) n(%)
same,Adverse event: Spirometry abnormal,[27],4 (22.2) n(%)
same,Adverse event: Tension Headache,[27],0 n(%)
same,incidence of decreased blood phosphorus level,Compound (1) groups,18.1%
same,incidence of nasal congestion,Compound (1) groups,1.4%
same,incidence of rhinorrhea,Compound (1) groups,4.2%
same,Adverse event: Alanine aminotransferase increased,[28],10 (13.9) n(%)
same,Adverse event: Aspartate aminotransferase increased,[28],4 (5.6) n(%)
same,Adverse event: Blood phosphorus decreased,[28],13 (18.1) n(%)
same,Adverse event: Dermatitis contact,[28],3 (4.2) n(%)
same,Adverse event: Headache,[28],7 (9.7) n(%)
same,Adverse event: Influenza-like illness,[28],34 (47.2) n(%)
same,Adverse event: Malaise,[28],2 (2.8) n(%)
same,Adverse event: Nasal congestion,[28],1 (1.4) n(%)
same,Adverse event: Nausea,[28],3 (4.2) n(%)
same,Adverse event: Oropharylngeal pain,[28],3 (4.2) n(%)
same,Adverse event: Rhinorrhea,[28],3 (4.2) n(%)
same,Adverse event: Spirometry abnormal,[28],10 (13.9) n(%)
same,Adverse event: Tension Headache,[28],3 (4.2) n(%)
same,EC50,[19],1.3 ± 0.63 nM
